# Measured values from patent US11813279B2, “Compositions for cancer therapy and methods” (AIM IMMUNOTECH INC., priority 2018, dated 2023).
# Read-outs that look alike come from different tables or passages of the source. Marks after values point to notes of the source that are not given here.
# Experiments:
# pancreatic carcinoma [1] = assay: Second line therapy following progression on FOLFIRINOX (literature studies); type: in vivo, human; conditions: Overall (mean)
# Source text: Overall Survival (OS) increased from 6.8 months with Gemcitabine to 11.1 months with FOLFIRINOX (p<0.001). However, the Complete Response Rate (CR) was only 0.6%.
# [2] = tested on: locally advanced and metastatic pancreatic carcinoma; conditions: first line therapy; n = 171 per arm; cited from earlier work
# pancreatic carcinoma [3] = conditions: second line, cited from earlier work
# pancreatic tumors = type: in vivo, mice; conditions: n = 8 each
# Source text: This is highly relevant for improving the likelihood of an antitumor response to checkpoint blockade.
# See, FIG. 4, panels labeled “Time-to-tumor progression.”
# [4] = tested on: human bladder tumor xenografts; assay: Human bladder tumor xenografts in nude mice; type: in vivo
# [5] = tested on: human renal cell carcinoma xenografts (786-0); assay: Human renal cell carcinoma (786-0) xenografts in nude mice; type: in vivo; conditions: monotherapy
# [6] = tested on: human renal cell carcinoma xenografts (786-0); conditions: Hubbell, 1990, cited from earlier work
# B16-F10 melanoma tumors = conditions: Day 30, n = 10; for Number of Complete Responses (CR): RECIST v1.1
# Description: Rintatolimod together with anti-PD-L1 antibodies were tested for anti-tumor activity against established subcutaneous B16 melanoma tumors in C57BL/6 mice. Mice (10 animals per group) were inoculated with 0.4×10E6 B16-F10 tumor cells in their shaved rear flanks. Seven days later (when tumors reached 0.3 to 0.5 cm in their largest diameter), mice were randomized for tumor sizes, and individually tagged and were allocated to the following six treatment groups: • No treatment (negative controls) • Rintatolimod alone 100 μg/dose 4× • Rintatolimod alone 250 μg/dose 4× • Anti-PD-L1 mAb alone • Rintatolimod 100 μg/dose 4× plus anti-PD-L1 mAb • Rintatolimod 250 μg/dose 4× plus anti-PD-L1 mAb
# Rintatolimod was injected intravenously at 100 or 250 micrograms/dose and was repeated 4 times, 5 days apart. Anti-PD-L1 mAb (clone 10F.9G2, BioXCell) was administered intraperitoneally on Days 1 and 3 after each rintatolimod injection at a 200 microgram/dose. Tumors were measured 3 times per week using a set of calipers, taking measurement of 2 opposing diameters and were recorded as tumor areas.
# Results were presented as tumor sizes for individual mice throughout time of therapy, average tumor size in each group and survival up to Day 30 (time to euthanasia).
# [sequence] and anti-PD-L1 antibodies were tested for anti-tumor activity against established subcutaneous B16 melanoma tumors in C57BL/6 mice. Briefly, mice (10 animals per group) were inoculated with 0.4×10E6 (i.e., 400,000) B16-F10 tumor cells in their shaved rear flanks. Seven days later, mice were randomized to six treatment groups as follows: (Group 1) No treatment (negative controls); (Group 2) [sequence] alone 100 μg/dose 4λ; (Group 3) [sequence] alone 250 μg/dose 4λ; (Group 4) Anti-PD-L1 mAb alone; (Group 5) [sequence] 100 μg/dose 4× plus anti-PD-L1 mAb; (Group 6) [sequence] 250 μg/dose 4× plus anti-PD-L1 mAb. mAb refers to monoclonal antibody.
# [sequence] was injected IV at 100 or 250 μg/dose 4 times, 5 days apart. Anti-PD-L1 mAb was administered IP on Days 1 and 3 after each [sequence] dose at 200 μg/dose. Tumors were measured 3 times per week using calipers, measuring 2 opposing diameters. […] Results were presented as tumor sizes for individual mice throughout time of therapy up to Day 30.
compound,measurement,setting,value
Nc1ccn([C@@H]2O[C@H](CO)[C@@H](O)C2(F)F)c(=O)n1 [Gemcitabine],Partial Response Rates (PR) (%),pancreatic carcinoma [1]; weighted average,6.4%*
same,Progression Free Survival (PFS) (months),pancreatic carcinoma [1]; weighted average,2.24* months
same,Overall Survival (OS) (months),pancreatic carcinoma [1]; weighted average based on n in each study,4.05* months
same,Complete Response Rates (CR) (%),[2],(0) %
same,Complete Response Rates (CR) n,[2],0 n
same,Overall Survival (OS) (months),[2],6.8 months
same,Partial Response Rates (PR) (%),[2],(9.4) %
same,Partial Response Rates (PR) n,[2],16 n
same,Progression Free Survival (PFS) (months),[2],3.3 months
same,Progression Free Survival (PFS) (months),"pancreatic carcinoma [3]; Gilabert, et al. 2017, 72 patients",2.5 months
same,Overall Survival (OS) (months),"pancreatic carcinoma [3]; Viaud, et al 2017, 96 patients",3.7 months
same,Progression Free Survival (PFS) (months),"pancreatic carcinoma [3]; Viaud, et al 2017",2.1 months
same,Overall Survival (OS) (months),"pancreatic carcinoma [3]; da Rocha, et al. 2015, 20 patients",5.7 months
same,Progression Free Survival (PFS) (months),"pancreatic carcinoma [3]; da Rocha, et al. 2015",2.0 months
polyriboinosinic: polyribocytidylic(12:1)uridylic acid,Increased Survival Over Control,pancreatic tumors; difference to control (33),0 days
same,Time to Progression Median-Days,pancreatic tumors; initial results,33 days
same,growth of human bladder tumor xenografts,[4],significantly inhibited
same,tumor regression,[5],tumor regression was observed in each mouse
same,mice free of residual tumor,[5]; while 100% of the control group had died,90%
same,tumor growth inhibition,[6]; p<0.001,statistically significant
same,survival,[6]; p<0.002,statistically significant
same,Number of Partial Responses (PR),B16-F10 melanoma tumors; rintatolimod 100 μg/dose 4× IV,0
same,Total # Tumor Responses CR + PR,B16-F10 melanoma tumors; rintatolimod 100 μg/dose 4× IV,0
same,Number of Complete Responses (CR),B16-F10 melanoma tumors; rintatolimod 100 μg/dose 4× IV,0
same,Number of Partial Responses (PR),B16-F10 melanoma tumors; rintatolimod 250 μg/dose 4× IV,0
same,Total # Tumor Responses CR + PR,B16-F10 melanoma tumors; rintatolimod 250 μg/dose 4× IV,0
same,Number of Complete Responses (CR),B16-F10 melanoma tumors; rintatolimod 250 μg/dose 4× IV,0
